In US20180042882A1, “C16:1n7-PALMITOLEATE AND DERIVATIVES THEREOF FOR TREATING OBESITY, PROMOTING WEIGHT LOSS, AND SUPPORTING WEIGHT MANAGEMENT” (Tersus Life Sciences, LLC, priority 2015, published 2018):

Tests used:
[1] = system: bovine adipocytes; assay: Fatty acid composition of bovine adipocyte cultures with exogenous palmitoleic acid (GLC); assay type: cell-based; settings: P<0.05
Excerpt: (§1) Bovine adipocyte cultures were used to determine if addition of exogenous palmitoleic acid (C16:1n7) altered lipogenesis in vitro (Burns et al., 2012a). Adipocytes were harvested from the bovine cultures on day 6 and day 12 and analyzed using GLC and qPCR. […] In contrast, increasing concentrations of palmitoleic acid led to a decrease in palmitic acid (C16:0), stearic acid (C18:0), and oleic acid (C18:1) levels (P<0.05). FIG. 2 illustrates de novo lipogenesis and β-oxidation in an adipocyte after exogenous palmitoleic acid addition.
(§2) The desaturation ratio of C18:1 cis-9/C18:0 decreased (P<0.05) in response to increasing concentrations of palmitoleic acid, which was consistent with the observed decrease in SCD-1 mRNA expression.

[2] = system: ELOVL6; assay: qPCR mRNA expression in bovine adipocyte cultures; assay type: cell-based; settings: compared to untreated control cells; P<0.05
Excerpt: as §1, §2

[3] = system: FASN; assay: qPCR mRNA expression in bovine adipocyte cultures; assay type: cell-based; settings: compared to untreated control cells; P<0.05
Excerpt: as §1, §2

[4] = system: SCD-1; assay: qPCR mRNA expression in bovine adipocyte cultures; assay type: cell-based; settings: compared to untreated control cells; P<0.05
Excerpt: as §1, §2

[5] = system: bovine adipocytes; assay: Rate of lipogenesis with [1-13C]acetate in bovine adipocytes; assay type: cell-based; settings: 2.5 mM [1-13C]acetate on day 6; compared to controls
Excerpt: as §2

[6] = system: Acyl-CoA dehydrogenase, long chain (ACADL); assay: Expression of fatty acid oxidation genes in bovine adipocytes; assay type: cell-based; settings: normalized to EIF3K and UXT; P≦0.07
Excerpt: (§3) The effect of palmitoleic acid supplementation on fatty acid oxidation in bovine adipocytes (see Kadegowda et al., 2011a) was examined by measuring the expression levels of Acyl-Coenzyme A oxidase 2 (ACOX2), Acyl-CoA dehydrogenase, long chain (ACADL), Phytanoyl-CoA 2-hydroxylase (PHYH), Caveolini (CAV1) and Adipose differentiation-related protein (ADEP). The geometric mean of Eukaryotic translation initiation factor 3, subunit k (EIF3K) and Ubiquitously expressed transcript (UXT) was used for normalization.

[7] = system: Phytanoyl-CoA 2-hydroxylase (PHYH); assay: as above; assay type: cell-based; settings: normalized to EIF3K and UXT
Excerpt: as §3

[8] = system: bovine adipocytes; assay: Fatty acid levels and desaturation (13C18:0, GLC-MS) in fatty acid supplemented bovine adipocytes; assay type: cell-based; settings: P<0.05
Experimental: In addition, cells were incubated with ^13C2 and ^13C18:0 on day 6 to estimate lipogenic and desaturation rates using GLC-MS.

[9] = system: CTP-1; assay: Enzymes involved in β-oxidation after exogenous palmitoleic acid; assay type: cell-based, bovine; settings: addition of exogenous palmitoleic acid
Excerpt: As such, C16:1n7-palmitoleate, derivatives thereof, pharmaceutically acceptable salts thereof, or a combination thereof, are useful in methods for reducing adipocyte hypertrophy and excess adipose tissue deposition.

[10] = Infusion of 13C16:1n7 in lambs, uptake and utilization; assay type: in vivo; settings: 5 mg/kg level, intravenous infusion
Experimental: This level of palmitoleic acid supplementation was selected based on previous experiments where lambs were infused with varying levels (0, 2, or 5 mg/kg) of ^13C16:1n7 to assess uptake and utilization in adipose tissues. […] This 5 mg/kg level is based on intravenous infusion levels and thus is adjusted for estimated ruminal bypass and intestinal absorption rates for dietary monounsaturated fatty acids for this oral feeding study.

[11] = increasing concentrations of palmitoleic acid (50, 150 and 300 μM), day 6 and day 12
[12] = increasing concentrations of palmitoleic acid

With `CCCCCC/C=C\CCCCCCCC(=O)O` [palmitoleic acid] the “desaturation ratio of C18:1 cis-9/C18:0” value ([1]; in response to increasing concentrations of palmitoleic acid) was “decreased”, the “cis-11 vaccenic acid (C18:1c11) levels in adipocytes” value [1, 11] was “linear increase” and the “cis-13 eicosenoic acid (C20:1c13) levels in adipocytes” value [1, 11] was “linear increase”. The “total fatty acid levels in adipocytes” value [1, 11] was “linear increase”, the “Palmitoleic acid levels in adipocytes” value ([1]; increasing concentrations of palmitoleic acid (50, 150 and 300 μM), harvested day 6 and day 12) was “linear increase” and the “oleic acid (C18:1) levels in adipocytes” value [1, 12] was “decrease”. For the same compound, the “palmitic acid (C16:0) levels in adipocytes” value [1, 12] was “decrease”, the “stearic acid (C18:0) levels in adipocytes” value [1, 12] was “decrease” and the “ELOVL6 mRNA expression levels” value [2] was “reduction”. For the same compound, the “FASN mRNA expression levels” value [3] was “reduction”, the “SCD-1 mRNA expression levels” value [4] was “reduction” and the rate of lipogenesis [5] was “lower rate of lipogenesis”. For the same compound, the “increase in ACADL expression” value [6] was 2.36 fold, the “increase in PHYH expression” value [7] was 95.5 fold and the “13C18:1 cis-9 levels” value ([8]; after 12 h of 13C18:0 incubation, compared with all other treatments) was “lower”. For the same compound, the “C18:1 cis-9/C18:0 ratio” value ([8]; compared with all other treatments) was “lower”, the “C16: levels in supplemented cells” value ([8]; compared with control cells) was “elevated” and the “C18:1 cis-11 levels in supplemented cells” value ([8]; compared with control cells) was “elevated”. For the same compound, the “C20:1 cis-13 levels in supplemented cells” value ([8]; compared with control cells) was “elevated”, the “CTP-1 (enzyme involved in β-oxidation) regulation” value [9] was “upregulates” and the blood glucose levels ([10]; compared to control) was “altered”. The “concentrations of 13C16:1n7 in serum” value ([10]; lambs infused with 0, 2, or 5 mg/kg) was “greatest concentrations”.
